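These data come from cells grown in 96-well plates and exposed to compound for 48 hours at five concentrations. At the GI50, growth is halved.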 The source made the active and inactive calls. Rule as the data show it: active = GI50 up to about 1.1 µM and inactive = higher.
Tests used:
Assay in all cases: growth of human tumour cells (NCI), 48 h
[1] = system: 786-0
[2] = system: A498
[3] = system: A549
[4] = system: ACHN
[5] = system: BT-549
[6] = system: CAKI-1
[7] = system: CCRF-CEM
[8] = system: COLO 205
[9] = system: DU-145
[10] = system: EKVX
[11] = system: HCC 2998
[12] = system: HCT-116
[13] = system: HCT-15
[14] = system: HL-60
[15] = system: HOP-62
[16] = system: HOP-92
[17] = system: HT-29
[18] = system: Hs-578T
[19] = system: IGROV-1
[20] = system: K562
[21] = system: KM12
[22] = system: LOX IMVI
[23] = system: M14
[24] = system: MCF7
[25] = system: MDA-MB-231
[26] = system: MDA-MB-435
[27] = system: MDA-N
[28] = system: MOLT-4
[29] = system: Malme-3M
[30] = system: NCI-H226
[31] = system: NCI-H23
[32] = system: NCI-H460
[33] = system: NCI-H522
[34] = system: NCI/ADR-RES
[35] = system: OVCAR-3
[36] = system: OVCAR-4
[37] = system: OVCAR-5
[38] = system: OVCAR-8
[39] = system: PC-3
[40] = system: RPMI-8226
[41] = system: RXF 393
[42] = system: SF-268
[43] = system: SF-295
[44] = system: SF-539
[45] = system: SK-MEL-28
[46] = system: SK-MEL-2
[47] = system: SK-MEL-5
[48] = system: SK-OV-3
[49] = system: SN12C
[50] = system: SNB-19
[51] = system: SNB-75
[52] = system: SR
[53] = system: SW-620
[54] = system: T47D
[55] = system: TK-10
[56] = system: U-251
[57] = system: UACC-257
[58] = system: UACC-62
[59] = system: UO-31

## Cc1cccc(-c2cc(O)c3c(C)cc(C)nc3n2)c1
[1]
  GI50: 4.57 µM (inactive)
[2]
  GI50: 5.71 µM (inactive)
[3]
  GI50: 3.66 µM (inactive)
[4]
  GI50: 8.3 µM (inactive)
[5]
  GI50: 3.73 µM (inactive)
[6]
  GI50: 5.66 µM (inactive)
[7]
  GI50: 3.45 µM (inactive)
[8]
  GI50: 1.04 µM (active)
[9]
  GI50: 4.32 µM (inactive)
[10]
  GI50: 22 µM (inactive)
[11]
  GI50: 4.9 µM (inactive)
[12]
  GI50: 2.04 µM (inactive)
[13]
  GI50: 1.32 µM
[14]
  GI50: 0.838 µM (active)
[15]
  GI50: 4.52 µM (inactive)
[16]
  GI50: 35.4 µM (inactive)
[17]
  GI50: 2.12 µM (inactive)
[18]
  GI50: 2.52 µM (inactive)
[19]
  GI50: 4.06 µM (inactive)
[20]
  GI50: 0.585 µM (active)
[21]
  GI50: 0.745 µM (active)
[22]
  GI50: 4.82 µM (inactive)
[23]
  GI50: 2.29 µM (inactive)
[24]
  GI50: 0.962 µM (active)
[25]
  GI50: 5.7 µM (inactive)
[26]
  GI50: 0.321 µM (active)
[27]
  GI50: 0.313 µM (active)
[28]
  GI50: 5.06 µM (inactive)
[29]
  GI50: 2.31 µM (inactive)
[30]
  GI50: 3.59 µM (inactive)
[31]
  GI50: 3.65 µM (inactive)
[32]
  GI50: 2.95 µM (inactive)
[33]
  GI50: 0.658 µM (active)
[34]
  GI50: 1.65 µM (inactive)
[35]
  GI50: 1.43 µM (inactive)
[36]
  GI50: 4.38 µM (inactive)
[37]
  GI50: 5.15 µM (inactive)
[38]
  GI50: 5.58 µM (inactive)
[39]
  GI50: 2.43 µM (inactive)
[40]
  GI50: 4.07 µM (inactive)
[41]
  GI50: 3.41 µM (inactive)
[42]
  GI50: 6.21 µM (inactive)
[43]
  GI50: 2.72 µM (inactive)
[44]
  GI50: 2.75 µM (inactive)
[45]
  GI50: 13.1 µM (inactive)
[46]
  GI50: 2.73 µM (inactive)
[47]
  GI50: 1.05 µM (active)
[48]
  GI50: 2.24 µM (inactive)
[49]
  GI50: 8.91 µM (inactive)
[50]
  GI50: 4.38 µM (inactive)
[51]
  GI50: 1.99 µM (inactive)
[52]
  GI50: 0.38 µM (active)
[53]
  GI50: 0.792 µM (active)
[54]
  GI50: 3.96 µM (inactive)
[55]
  GI50: 16.1 µM (inactive)
[56]
  GI50: 2.79 µM (inactive)
[57]
  GI50: 7.87 µM (inactive)
[58]
  GI50: 4.14 µM (inactive)
[59]
  GI50: 9.91 µM (inactive)

## O=C1C=CC(=O)N1n1c(Cc2ccccc2)n[nH]c1=O
[1]
  GI50: > 100 µM (inactive)
[2]
  GI50: > 100 µM (inactive)
[3]
  GI50: > 100 µM (inactive)
[4]
  GI50: > 100 µM (inactive)
[5]
  GI50: > 100 µM (inactive)
[6]
  GI50: > 100 µM (inactive)
[7]
  GI50: > 100 µM (inactive)
[8]
  GI50: > 100 µM (inactive)
[9]
  GI50: > 100 µM (inactive)
[10]
  GI50: > 100 µM (inactive)
[11]
  GI50: > 100 µM (inactive)
[12]
  GI50: > 100 µM (inactive)
[13]
  GI50: > 100 µM
[14]
  GI50: > 100 µM (inactive)
[15]
  GI50: > 100 µM (inactive)
[16]
  GI50: > 100 µM (inactive)
[17]
  GI50: > 100 µM (inactive)
[18]
  GI50: > 100 µM (inactive)
[19]
  GI50: > 100 µM (inactive)
[20]
  GI50: > 100 µM (inactive)
[21]
  GI50: > 100 µM (inactive)
[22]
  GI50: > 100 µM (inactive)
[24]
  GI50: > 100 µM (inactive)
[25]
  GI50: > 100 µM (inactive)
[26]
  GI50: > 100 µM (inactive)
[27]
  GI50: > 100 µM (inactive)
[28]
  GI50: > 100 µM (inactive)
[29]
  GI50: > 100 µM (inactive)
[30]
  GI50: > 100 µM (inactive)
[31]
  GI50: > 100 µM (inactive)
[32]
  GI50: > 100 µM (inactive)
[33]
  GI50: > 100 µM (inactive)
[34]
  GI50: > 100 µM (inactive)
[35]
  GI50: > 100 µM (inactive)
[36]
  GI50: > 100 µM (inactive)
[37]
  GI50: > 100 µM (inactive)
[38]
  GI50: > 100 µM (inactive)
[39]
  GI50: > 100 µM (inactive)
[40]
  GI50: > 100 µM (inactive)
[41]
  GI50: > 100 µM (inactive)
[42]
  GI50: > 100 µM (inactive)
[43]
  GI50: > 100 µM (inactive)
[44]
  GI50: > 100 µM (inactive)
[45]
  GI50: > 100 µM (inactive)
[46]
  GI50: > 100 µM (inactive)
[47]
  GI50: > 100 µM (inactive)
[48]
  GI50: > 100 µM (inactive)
[49]
  GI50: > 100 µM (inactive)
[50]
  GI50: > 100 µM (inactive)
[52]
  GI50: > 100 µM (inactive)
[53]
  GI50: > 100 µM (inactive)
[54]
  GI50: > 100 µM (inactive)
[55]
  GI50: > 100 µM (inactive)
[56]
  GI50: > 100 µM (inactive)
[57]
  GI50: > 100 µM (inactive)
[58]
  GI50: > 100 µM (inactive)
[59]
  GI50: > 100 µM (inactive)

Source: ChEMBL document CHEMBL1201862, “PubChem BioAssay data set” (2004)
